Test [1] deals with T1, huDHOase (Homo sapiens, UniProt P27708).
T1 construct: huDHOase1456-1846-NdeI-N; made in house; host or cells: E. coli BL21(DE3)
T1 sequence (P27708 1456-1846): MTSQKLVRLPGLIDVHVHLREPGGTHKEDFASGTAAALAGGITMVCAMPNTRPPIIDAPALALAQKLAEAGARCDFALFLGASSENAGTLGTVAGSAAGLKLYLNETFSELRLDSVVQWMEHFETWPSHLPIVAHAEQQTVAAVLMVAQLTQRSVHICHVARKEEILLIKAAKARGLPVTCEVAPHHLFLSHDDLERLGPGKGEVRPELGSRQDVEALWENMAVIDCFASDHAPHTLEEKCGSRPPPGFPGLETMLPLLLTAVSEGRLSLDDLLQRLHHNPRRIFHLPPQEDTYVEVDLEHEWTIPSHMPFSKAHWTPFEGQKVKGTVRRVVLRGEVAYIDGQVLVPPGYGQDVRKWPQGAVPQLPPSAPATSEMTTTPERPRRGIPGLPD
The test can be described thus: fluorescence quenching binding assay. On the procedure:
(§1) Figure 7 The data used to calculate the Kd values of various DHOases. (A) The fluorescence emission spectra of ScDHOase with PLU of different concentrations (0–200 μM; 0, 10, 20, 50, 75, 100, 125, 150, 175, and 200 μM). The decrease in intrinsic fluorescence of protein was measured at 324 nm upon excitation at 280 nm with a spectrofluorometer. […] (B) The fluorescence emission spectra of huDHOase with PLU of different concentrations (0–200 μM). (C) The fluorescence emission spectra of StDHOase with PLU of different concentrations. (D) The fluorescence emission spectra of ScDHOase–R18A with PLU of different concentrations. (E) The fluorescence emission spectra of ScDHOase–T106A with PLU of different concentrations. […] (F) An aliquot amount of PLU was added to the enzyme solution to determine the Kd. The Kd was obtained by the following equation: ΔF = ΔFmax − Kd(ΔF/[PLU]). Data points are an average of 2–3 determinations within a 10% error.
(§2) The decrease in the intrinsic fluorescence of DHOase was measured with a spectrofluorometer (Hitachi F-2700; Hitachi High-Technologies, Japan). The Kd was obtained using the following equation: ΔF = ΔFmax − Kd(ΔF/[PLU]).
(§3) The Kd value of the purified DHOase was determined using the fluorescence quenching method as previously described for DHOase, DHPase, and DnaB helicase. Briefly, an aliquot of the compound was added into the solution containing DHOase (1 μM) and 50 mM HEPES at pH 7.0. The decrease in the intrinsic fluorescence of DHOase was measured at 324 nm upon excitation at 280 nm and 25 °C with a spectrofluorometer (Hitachi F-2700; Hitachi High-Technologies, Japan). The Kd was obtained using the following equation: ΔF = ΔFmax − Kd(ΔF/[PLU]).

Test [2] concerns the target T2, ScDHOase–R18A (Saccharomyces cerevisiae, UniProt P20051, R18A).
T2 construct: made in house; host or cells: E. coli BL21(DE3)
As to the kind of experiment: fluorescence quenching binding assay. As to the method: as §1, §2, §3

For test [3], the target named is T3, ScDHOase–T106A (Saccharomyces cerevisiae, UniProt P20051, T106A).
T3 construct: made in house; host or cells: E. coli BL21(DE3)
T3 sequence (P20051 whole entry T106A): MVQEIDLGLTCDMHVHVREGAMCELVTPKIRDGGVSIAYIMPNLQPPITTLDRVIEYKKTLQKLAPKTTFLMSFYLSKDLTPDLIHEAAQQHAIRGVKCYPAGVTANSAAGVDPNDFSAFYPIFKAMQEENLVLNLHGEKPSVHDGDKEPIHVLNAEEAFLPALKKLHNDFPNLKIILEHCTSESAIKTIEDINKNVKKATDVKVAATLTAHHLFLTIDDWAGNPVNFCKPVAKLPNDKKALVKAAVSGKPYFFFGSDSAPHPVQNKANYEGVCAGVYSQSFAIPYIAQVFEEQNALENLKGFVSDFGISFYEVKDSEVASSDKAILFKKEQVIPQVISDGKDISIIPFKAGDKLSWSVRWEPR
As to the kind of experiment: fluorescence quenching binding assay. On the procedure: as §1, §2, §3

Test [4] deals with T4, ScDHOase (Saccharomyces cerevisiae, UniProt P20051).
T4 construct: made in house; host or cells: E. coli BL21(DE3)
T4 sequence (P20051 whole entry): as the sequence (P20051 whole entry T106A) above, with A106T counted along it
As to the kind of experiment: fluorescence quenching binding assay. As to the method: as §1, §2, §3

Test [5] concerns the target T5, StDHOase (Salmonella typhimurium, UniProt P06204).
T5 construct: made in house; host or cells: E. coli BL21(DE3)
The test can be described thus: fluorescence quenching binding assay. The arrangement: species or system Salmonella enterica serovar Typhimurium LT2. As to the method: as §1, §2, §3

Test [6] addresses T5, StDHOase. As to the kind of experiment: rapid spectrophotometric DHOase enzyme assay (hydrolysis of DHO). Format: biochemical, Salmonella enterica serovar Typhimurium LT2. The settings on record: PLU 200 μM. On the procedure: A rapid spectrophotometric assay was used to determine the activity of DHOase. Briefly, the hydrolysis of DHO was measured at 25 °C as the decrease in absorbance at 230 nm. The purified DHOase was added to a 2 mL solution containing 0.5 mM DHO and 100 mM Tris–HCl at pH 8.0 to start the reaction. The extinction coefficient of DHO was 0.92 mM^−1·cm^−1 at 230 nm. The hydrolysis of DHO was monitored using a UV/Vis spectrophotometer (Hitachi U 3300; Hitachi High-Technologies, Tokyo, Japan). A unit of activity was defined as the amount of enzyme catalyzing the hydrolysis of 1 μmol DHO/min, and the specific activity was expressed in terms of units of activity per mg of enzyme. The kinetic parameters Km and Vmax were determined from a nonlinear plot by fitting the hydrolyzing rate from individual experiments to the Michaelis–Menten equation (Enzyme Kinetics module of Sigma-Plot; Systat Software, Chicago, IL, USA).

The subject of test [7] is Klebsiella pneumoniae. The test can be described thus: bacterial growth inhibition. To be noted: 100 μM PLU added at 0.5 OD600, 37 °C. The class given is cell-based. As to the method:
(§4) Figure 8 Anticancer and antibacterial activities of PLU. (A) The trypan blue assay—4T1 cells incubated with PLU (10 μM). After 24 h, the anticancer potentiality was estimated. (B) The wound-healing assay—4T1 cells were seeded in 24-well plates. Cells were incubated with PLU (10 μM) for 24 h to allow migration. (C) Hoechst staining assay—an amount of 10 μM PLU-induced apoptosis with DNA fragmentation was observed. […] (E) Effects of PLU on cell survival, migration and proliferation, and nuclear condensation—a concentration of 10 μM PLU was effective for anti-4T1 cancer cells. (F) PLU inhibited bacterial growth—K. pneumoniae and S. enterica serovar Typhimurium LT2 cells were grown to 0.5 OD600 at 37 °C, and then PLU was added into the medium. […] PLU may inhibit the pyrimidine biosynthesis, resulting in its antibacterial activities.
(§5) Similar to cancer cells, bacterial cells are rapidly reproducible, and their growth might be suppressed by PLU. To test whether PLU could inhibit bacterial growth, we grew Klebsiella pneumoniae and S. enterica serovar Typhimurium LT2 cells to 0.5 OD600 at 37 °C, and then added PLU into the medium. […] Thus, PLU was also effective for antipathogen chemotherapies. PLU may inhibit pyrimidine biosynthesis, resulting in antibacterial activities.

In test [8] the test system is S. enterica serovar Typhimurium LT2. As to the kind of experiment: bacterial growth inhibition. Format: cell-based. To be noted: 100 μM PLU added at 0.5 OD600, 37 °C. On the procedure: as §4, §5

T5 sequence (P06204 whole entry): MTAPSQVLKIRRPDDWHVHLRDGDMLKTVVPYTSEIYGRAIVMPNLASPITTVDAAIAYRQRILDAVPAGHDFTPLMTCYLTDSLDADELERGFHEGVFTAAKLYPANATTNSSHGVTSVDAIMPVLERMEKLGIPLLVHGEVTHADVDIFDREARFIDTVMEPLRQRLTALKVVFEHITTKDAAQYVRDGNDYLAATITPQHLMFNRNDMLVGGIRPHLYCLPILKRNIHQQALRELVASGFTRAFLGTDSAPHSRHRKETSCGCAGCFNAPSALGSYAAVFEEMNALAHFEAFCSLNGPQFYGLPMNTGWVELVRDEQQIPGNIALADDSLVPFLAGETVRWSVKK
T2 sequence (P20051 whole entry R18A): as the sequence (P20051 whole entry T106A) above, with R18A, A106T counted along it

As usually defined, the Kd is a measure of binding affinity in units of concentration. Regarding `CC1=CC(=O)c2c(O)cccc2C1=O` [PLU, plumbagin], in test [1] (PLU 0–200 μM), the “quenching of huDHOase” value is on record as 75.6%, the “λem shift of huDHOase” value turned out to be 1.5 nm and the “λmax of huDHOase emission” value was “from 340 to 338.5”. In test [1] (fluorescence quenching titration curve), this molecule came in with an equilibrium dissociation constant (Kd) of 151 ± 4.1 µM. In addition, the Kd in test [2] was 181 ± 5.9 µM. Further, in test [2] (PLU 0–200 μM), the “quenching of ScDHOase–R18A” value came out at 75.1%, the “λem shift of ScDHOase–R18A” value came out at 4.0 nm and the “λmax of ScDHOase–R18A emission” value is “from 324.5 to 320.5”. This molecule gave a Kd in test [3] of 70.8 ± 2.6 µM. Also, in test [3] (PLU 0–200 μM), the “quenching of ScDHOase–T106A” value turned out to be 90.0%, the “λem shift of ScDHOase–T106A” value turned out to be 6.5 nm and the “λmax of ScDHOase–T106A emission” value is “from 328 to 321.5”. The same molecule came in with a Kd in test [4] of 64.8 ± 1.6 µM. Also, in test [4] (200 μM compound, 324 nm, excitation 280 nm), the “quenching of the intrinsic fluorescence of ScDHOase” value is reported as 87.7%. The “λmax of ScDHOase emission” value in test [4] (PLU 0–200 μM) is given as “from 324 to 317.5”. For the same molecule, the “λem shift of ScDHOase” value in test [4] (PLU 0–200 μM, blue shift) turned out to be 6.5 nm. The molecule further gave a Kd in test [5] of 80.3 ± 2.5 µM. Besides, in test [5] (PLU 0–200 μM), the “quenching of StDHOase” value was 85.9%, the “λem shift of StDHOase” value was found to be 11.0 nm and the “λmax of StDHOase emission” value is listed as “from 330.5 to 319.5”. For the same molecule, in test [6], the “decrease of the activity of StDHOase” value came out at 71%. For the same molecule, in test [7], the “growth of K. pneumoniae” value was “significantly inhibited the growth”. Also, the “growth of S. enterica serovar Typhimurium LT2” value in test [8] is given as “significantly inhibited the growth”.

Source of the values: publication PMC8267945, “Plumbagin, a Natural Product with Potent Anticancer Activities, Binds to and Inhibits Dihydroorotase, a Key Enzyme in Pyrimidine Biosynthesis” (International Journal of Molecular Sciences, 2021).
